Oligonucleotides are written 5' to 3', each unit as a sugar letter and its base; * is a phosphorothioate linkage, no mark a phosphodiester; rarer units and linkages stand in square brackets, end groups in braces. Plain capitals give the bases only. k = constrained ethyl (cEt); [5mC] = 5-methylcytosine; d = 2'-deoxy (DNA)
System: KLK2 mRNA
Assay: KLK2 mRNA (AR target gene) in C4-2B MR cells
Format: cell-based, human

Substance | Percent inhibition of KLK2 mRNA in C4-2B MR cells (0.04 μM) [%] | Percent inhibition of KLK2 mRNA in C4-2B MR cells (0.20 μM) [%] | Percent inhibition of KLK2 mRNA in C4-2B MR cells (1.00 μM) [%] | Percent inhibition of KLK2 mRNA in C4-2B MR cells (5.00 μM) [%] | AR target gene KLK2 mRNA levels (C4-2B MR cells, 0.04-5.00 μM)
549372 (kA*kA*kG*dT*dT*dG*dT*dA*dG*dT*dA*dG*dT*k[5mC]*kG*k[5mC]) [compound 549372] | 14 | 16 | 57 | 87 | 
549458 (kG*kT*kT*dG*dA*dT*dT*dT*dA*dA*dT*dG*dG*kT*kT*kG) [compound 549458] | 35 | 47 | 87 | 93 | 
GTTGATTTAATGGTTG (all phosphorothioate, sugars by position not given here; further chemistry not fully specified) [ISIS 549458] |  |  |  |  | reduced target gene levels in a dose dependent manner more extensively than treatment with ISIS 554221

— USRE48461E1, “Modulation of androgen receptor expression” (Ionis Pharmaceuticals, Inc., priority 2012, dated 2021)
